Measurements taken from ChEMBL document CHEMBL5108042, “Design and synthesis of eugenol/isoeugenol glycoconjugates and other analogues as antifungal agents against Aspergillus fumigatus” (RSC Med Chem, 2022).
≈ marks a conversion by molar mass, not a printed value. Calls of active or inactive are those of the source. The rule behind the calls is not given here.

Assays:
Aspergillus fumigatus [1] = test: Antifungal activity against Aspergillus fumigatus ATCC 46645 assessed as inhibition of fungal growth incubated for 5 days by CLSI protocol based microbroth dilution method; type: functional, organism-based; conditions: ATCC 46645, 120 h
Aspergillus fumigatus [2] = test: Antifungal activity against Aspergillus fumigatus ATCC 46645 assessed as inhibition of conidial and mycelial growth incubated for 5 days by CLSI protocol based microbroth dilution method; type: functional; conditions: ATCC 46645, 120 h, time 5 day
[3] = Selectivity index, ratio of CC50 for cytotoxicity against human L-132 cells assessed as inhibition of cell growth to IC50 for antifungal activity against Aspergillus fumigatus ATCC 46645 assessed as inhibition of fungal growth; type: toxicity, cell-based; conditions: read-out: Ratio IC50
[4] = Cytotoxicity against human L132 cells assessed as inhibition of cell growth incubated for 24 hrs by MTT assay; type: toxicity, cell-based
Aspergillus fumigatus [5] = test: Antifungal activity against Aspergillus fumigatus ATCC 46645 assessed as decrease in conidia formation at IC50 concentration by UV-vis spectrophotometric analysis; type: functional, organism-based
Aspergillus fumigatus [6] = test: Antifungal activity against Aspergillus fumigatus ATCC 46645 assessed as decrease in DHN-melanin content at IC50 concentration incubated for 5 days by UV-vis spectrophotometric analysis; type: functional, organism-based; conditions: time 5.0 day
Aspergillus fumigatus [7] = test: Antifungal activity against Aspergillus fumigatus ATCC 46645 assessed as decrease in DHN-melanin content by measuring absorption spectra at optical density 275 nm at IC50 concentration incubated for 5 days by UV-vis spectrophotometric analysis; type: functional; conditions: time 5 day
Aspergillus fumigatus [8] = test: Antifungal activity against Aspergillus fumigatus ATCC 46645 assessed as smooth conidial surface with absence of protrusions at IC50 concentration by scanning electron microscopic analysis; type: functional, organism-based
Aspergillus fumigatus [9] = test: Antifungal activity against Aspergillus fumigatus ATCC 46645 assessed as decrease in number of conidia at IC50 concentration by scanning electron microscopic analysis; type: functional, organism-based
Aspergillus fumigatus [10] = test: Antifungal activity against Aspergillus fumigatus ATCC 46645 assessed as absence of melanin layer at IC50 concentration by transmission electron microscopic analysis; type: functional, organism-based
Cell membrane = test: Induction of cell membrane disruption in Aspergillus fumigatus ATCC 46645 assessed as accumulation of cytoplasmic content at IC50 concentration by transmission electron microscopic analysis; type: subcellular
Aspergillus fumigatus [11] = test: Antibiofilm activity against Aspergillus fumigatus ATCC 46645 at 69.53 to 86.92 uM incubated for 24 hrs by MTT assay; type: functional, organism-based; conditions: dose 69.53-86.92 µM
Aspergillus fumigatus [12] = test: Antibiofilm activity against Aspergillus fumigatus ATCC 46645 assessed as absence of ECM on hyphae at 69.53 to 86.92 uM; type: functional, organism-based; conditions: dose 69.53-86.92 µM
Aspergillus fumigatus [13] = test: Antibiofilm activity against Aspergillus fumigatus ATCC 46645 at 243.60 to 304.5 uM incubated for 24 hrs by MTT assay; type: functional, organism-based; conditions: dose 243.6-304.5 µM
Aspergillus fumigatus [14] = test: Antibiofilm activity against Aspergillus fumigatus ATCC 46645 assessed as absence of ECM on hyphae at 243.60 to 304.5 uM; type: functional, organism-based; conditions: dose 243.6-304.5 µM
[15] = Cytotoxicity against human L132 cells assessed as inhibition of cell growth; type: toxicity, cell-based

Row | SMILES | IC50 (Aspergillus fumigatus [1]) | MIC (Aspergillus fumigatus [2]) | further results
1 | C/C=C/c1ccc(OCc2cn([C@@H]3O[C@H](COC(C)=O)[C@@H](O[C@H]4O[C@H](COC(C)=O)[C@@H](OC(C)=O)[C@H](OC(C)=O)[C@H]4OC(C)=O)[C@H](OC(C)=O)[C@H]3OC(C)=O)nn2)c(OC)c1 | 14.5 µM | > 20 µM | 
2 | C=CCc1ccc(O)c(OC)c1 [EUGENOL] | 1900 µM | 3800 µM (≈ 624 µg/mL) | 
3 | C=CCc1ccc(OCc2cn([C@@H]3O[C@H](COC(C)=O)[C@@H](OC(C)=O)[C@H](OC(C)=O)[C@H]3OC(C)=O)nn2)c(OC)c1 | 5.42 µM | 10.9 µM (≈ 6.25 µg/mL) | selectivity ratio [3]: 8.01; CC50 at 24 h [4]: 43.5 µM; Activity (Aspergillus fumigatus [5]): Active; Activity (Aspergillus fumigatus [6]): Active; Activity (Aspergillus fumigatus [7]): 0.295; Activity (Aspergillus fumigatus [8]): Active; Activity (Aspergillus fumigatus [9]): Active; Activity (Aspergillus fumigatus [10]): Active; Activity (Cell membrane): Active; Activity (Aspergillus fumigatus [11]): Active; Activity (Aspergillus fumigatus [12]): Active
4 | C#CCOc1ccc(/C=C/C)cc1OC | > 25 µM | > 20 µM | 
5 | C#CCOc1ccc(CCC)cc1OC | > 25 µM | > 20 µM | 
6 | C/C=C/c1ccc(OCc2cn([C@@H]3O[C@H](COC(C)=O)[C@@H](OC(C)=O)[C@H](OC(C)=O)[C@H]3OC(C)=O)nn2)c(OC)c1 | 21.7 µM | > 20 µM | 
7 | CCCc1ccc(O)c(OC)c1 | 9.39 µM | 15.5 µM (≈ 2.58 µg/mL) | selectivity ratio [3]: 16; CC50 at 24 h [4]: 150 µM; Activity (Aspergillus fumigatus [5]): Active; Activity (Aspergillus fumigatus [6]): Active; Activity (Aspergillus fumigatus [7]): 0.176; Activity (Aspergillus fumigatus [8]): Active; Activity (Aspergillus fumigatus [9]): Active; Activity (Aspergillus fumigatus [10]): Active; Activity (Cell membrane): Active; Activity (Aspergillus fumigatus [13]): Active; Activity (Aspergillus fumigatus [14]): Active
8 | C/C=C/c1ccc(O)c(OC)c1 | 1900 µM | 3800 µM (≈ 624 µg/mL) | Activity (Aspergillus fumigatus [7]): 0.399; Activity (Aspergillus fumigatus [8]): Active; Activity (Aspergillus fumigatus [9]): Active; Activity (Aspergillus fumigatus [10]): Active; Activity (Cell membrane): Active
9 | C=CCc1ccc(OCc2cn([C@@H]3O[C@H](COC(C)=O)[C@@H](O[C@@H]4O[C@H](COC(C)=O)[C@H](OC(C)=O)[C@H](OC(C)=O)[C@H]4OC(C)=O)[C@H](OC(C)=O)[C@H]3OC(C)=O)nn2)c(OC)c1 | 14.5 µM | > 20 µM | 
10 | COc1cc(C[C@H](O)CO)ccc1O[Si](C)(C)C(C)(C)C | > 25 µM | > 20 µM | 
11 | CCCc1ccc(OCc2cn([C@@H]3O[C@H](COC(C)=O)[C@@H](OC(C)=O)[C@H](OC(C)=O)[C@H]3OC(C)=O)nn2)c(OC)c1 | > 25 µM | > 20 µM | 
12 | C/C=C/c1ccc(OCc2cn([C@@H]3O[C@H](COC(C)=O)[C@@H](O[C@@H]4O[C@H](COC(C)=O)[C@H](OC(C)=O)[C@H](OC(C)=O)[C@H]4OC(C)=O)[C@H](OC(C)=O)[C@H]3OC(C)=O)nn2)c(OC)c1 | 14.5 µM | > 20 µM | 
13 | C=CCc1ccc(OCc2cn([C@@H]3O[C@H](CO)[C@@H](O)[C@H](O)[C@H]3O)nn2)c(OC)c1 | > 25 µM | > 20 µM | 
14 | CCCc1ccc(OCc2cn(C[C@@H](O)Cc3ccc(O[Si](C)(C)C(C)(C)C)c(OC)c3)nn2)c(OC)c1 | > 25 µM | > 20 µM | 
15 | C=CCc1ccc(OCc2cn([C@@H]3O[C@H](COC(C)=O)[C@H](OC(C)=O)[C@H](OC(C)=O)[C@H]3OC(C)=O)nn2)c(OC)c1 | 10.9 µM | > 20 µM | 
16 | COc1cc(C[C@H](O)CN=[N+]=[N-])ccc1O[Si](C)(C)C(C)(C)C | > 25 µM | > 20 µM | 
17 | C=CCc1ccc(OCc2cn(C[C@@H](O)Cc3ccc(O[Si](C)(C)C(C)(C)C)c(OC)c3)nn2)c(OC)c1 | > 25 µM | > 20 µM | 
18 | C/C=C/c1ccc(OCc2cn(C[C@@H](O)Cc3ccc(O[Si](C)(C)C(C)(C)C)c(OC)c3)nn2)c(OC)c1 | > 25 µM | > 20 µM | 
19 | C=CCc1ccc(O[Si](C)(C)C(C)(C)C)c(OC)c1 | > 25 µM | > 20 µM | 
20 | C/C=C/c1ccc(OCc2cn(C3O[C@@H](C)[C@H](OC(C)=O)[C@@H](OC(C)=O)[C@H]3OC(C)=O)nn2)c(OC)c1 (some centres not stated) | 12.1 µM | > 20 µM | 
21 | CCCc1ccc(OCc2cn([C@@H]3O[C@H](CO)[C@H](O)[C@H](O)[C@@H]3O)nn2)c(OC)c1 | > 25 µM | > 20 µM | 
22 | C/C=C/c1ccc(OCc2cn([C@@H]3O[C@H](COC(=O)c4ccccc4)[C@H](OC(=O)c4ccccc4)[C@H](OC(=O)c4ccccc4)[C@H]3OC(=O)c3ccccc3)nn2)c(OC)c1 | 15.2 µM | > 20 µM | 
23 | C/C=C/c1ccc(OCc2cn([C@@H]3O[C@H](COC(C)=O)[C@H](OC(C)=O)[C@H](OC(C)=O)[C@H]3OC(C)=O)nn2)c(OC)c1 | 10.9 µM | > 20 µM | 
24 | C#CCOc1ccc(CC=C)cc1OC | > 25 µM | > 20 µM | 
25 | CCC(C)n1ncn(-c2ccc(N3CCN(c4ccc(OCC5COC(Cn6cncn6)(c6ccc(Cl)cc6Cl)O5)cc4)CC3)cc2)c1=O (configuration not stated) [ITRACONAZOLE] |  | 0.552 µM (≈ 0.39 µg/mL) | 
26 | C[C@@H]1[C@H](O)[C@@H](C)/C=C/C=C/C=C/C=C/C=C/C=C/C=C/[C@H](O[C@@H]2O[C@H](C)[C@@H](O)[C@H](N)[C@@H]2O)C[C@@H]2O[C@](O)(C[C@@H](O)C[C@@H](O)[C@H](O)CC[C@@H](O)C[C@@H](O)CC(=O)O[C@H]1C)C[C@H](O)[C@H]2C(=O)O [AMPHOTERICIN B] | 1.08 µM | 0.216 µM (≈ 0.2 µg/mL) | CC50 [15]: 5.4 µM; Activity (Aspergillus fumigatus [7]): 1.126
27 | C=CCc1ccc(OCc2cn([C@@H]3O[C@H](COC(C)=O)[C@@H](O[C@H]4O[C@H](COC(C)=O)[C@@H](OC(C)=O)[C@H](OC(C)=O)[C@H]4OC(C)=O)[C@H](OC(C)=O)[C@H]3OC(C)=O)nn2)c(OC)c1 | 14.5 µM | > 20 µM | 
